Measurements taken from ChEMBL document CHEMBL4007491, “Structure-based drug design of novel ASK1 inhibitors using an integrated lead optimization strategy” (Bioorg Med Chem Lett, 2017).

Assays:
[1] = target: 5'-AMP-activated protein kinase catalytic subunit alpha-1 (Homo sapiens, UniProt Q13131); assay: Inhibition of PRKAA1 (unknown origin)
[2] = target: T1, Tyrosine-protein kinase ITK/TSK (Homo sapiens, UniProt Q08881); assay: Inhibition of recombinant full length human GST-tagged ITK expressed in baculovirus expression system
T1 sequence (Q08881 whole entry): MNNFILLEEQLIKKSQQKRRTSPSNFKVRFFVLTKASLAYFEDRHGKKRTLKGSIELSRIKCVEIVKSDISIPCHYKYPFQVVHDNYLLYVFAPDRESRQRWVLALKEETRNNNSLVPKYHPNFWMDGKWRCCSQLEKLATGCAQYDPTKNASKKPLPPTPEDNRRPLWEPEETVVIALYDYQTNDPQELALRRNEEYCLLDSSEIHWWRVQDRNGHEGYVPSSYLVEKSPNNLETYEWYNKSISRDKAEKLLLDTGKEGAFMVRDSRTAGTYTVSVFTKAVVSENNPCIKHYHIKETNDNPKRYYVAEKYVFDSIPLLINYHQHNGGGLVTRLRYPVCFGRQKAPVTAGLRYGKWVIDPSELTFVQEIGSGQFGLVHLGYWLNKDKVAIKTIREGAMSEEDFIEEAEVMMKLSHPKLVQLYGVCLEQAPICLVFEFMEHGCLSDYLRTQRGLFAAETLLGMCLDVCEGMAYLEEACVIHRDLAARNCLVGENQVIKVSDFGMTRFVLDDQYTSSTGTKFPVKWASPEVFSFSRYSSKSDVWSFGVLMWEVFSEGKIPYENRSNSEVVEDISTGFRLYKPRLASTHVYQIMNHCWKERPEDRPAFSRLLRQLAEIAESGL

[3] = target: Cyclin-dependent kinase 2 (Homo sapiens, UniProt P24941); assay: Inhibition of CDK2 (unknown origin)
[4] = target: T2, Mitogen-activated protein kinase kinase kinase 5 (Homo sapiens, UniProt Q99683); assay: Inhibition of ASK1 (unknown origin) using biotin-MBP as substrate after 20 mins by TR-FRET assay
T2 sequence (Q99683 whole entry): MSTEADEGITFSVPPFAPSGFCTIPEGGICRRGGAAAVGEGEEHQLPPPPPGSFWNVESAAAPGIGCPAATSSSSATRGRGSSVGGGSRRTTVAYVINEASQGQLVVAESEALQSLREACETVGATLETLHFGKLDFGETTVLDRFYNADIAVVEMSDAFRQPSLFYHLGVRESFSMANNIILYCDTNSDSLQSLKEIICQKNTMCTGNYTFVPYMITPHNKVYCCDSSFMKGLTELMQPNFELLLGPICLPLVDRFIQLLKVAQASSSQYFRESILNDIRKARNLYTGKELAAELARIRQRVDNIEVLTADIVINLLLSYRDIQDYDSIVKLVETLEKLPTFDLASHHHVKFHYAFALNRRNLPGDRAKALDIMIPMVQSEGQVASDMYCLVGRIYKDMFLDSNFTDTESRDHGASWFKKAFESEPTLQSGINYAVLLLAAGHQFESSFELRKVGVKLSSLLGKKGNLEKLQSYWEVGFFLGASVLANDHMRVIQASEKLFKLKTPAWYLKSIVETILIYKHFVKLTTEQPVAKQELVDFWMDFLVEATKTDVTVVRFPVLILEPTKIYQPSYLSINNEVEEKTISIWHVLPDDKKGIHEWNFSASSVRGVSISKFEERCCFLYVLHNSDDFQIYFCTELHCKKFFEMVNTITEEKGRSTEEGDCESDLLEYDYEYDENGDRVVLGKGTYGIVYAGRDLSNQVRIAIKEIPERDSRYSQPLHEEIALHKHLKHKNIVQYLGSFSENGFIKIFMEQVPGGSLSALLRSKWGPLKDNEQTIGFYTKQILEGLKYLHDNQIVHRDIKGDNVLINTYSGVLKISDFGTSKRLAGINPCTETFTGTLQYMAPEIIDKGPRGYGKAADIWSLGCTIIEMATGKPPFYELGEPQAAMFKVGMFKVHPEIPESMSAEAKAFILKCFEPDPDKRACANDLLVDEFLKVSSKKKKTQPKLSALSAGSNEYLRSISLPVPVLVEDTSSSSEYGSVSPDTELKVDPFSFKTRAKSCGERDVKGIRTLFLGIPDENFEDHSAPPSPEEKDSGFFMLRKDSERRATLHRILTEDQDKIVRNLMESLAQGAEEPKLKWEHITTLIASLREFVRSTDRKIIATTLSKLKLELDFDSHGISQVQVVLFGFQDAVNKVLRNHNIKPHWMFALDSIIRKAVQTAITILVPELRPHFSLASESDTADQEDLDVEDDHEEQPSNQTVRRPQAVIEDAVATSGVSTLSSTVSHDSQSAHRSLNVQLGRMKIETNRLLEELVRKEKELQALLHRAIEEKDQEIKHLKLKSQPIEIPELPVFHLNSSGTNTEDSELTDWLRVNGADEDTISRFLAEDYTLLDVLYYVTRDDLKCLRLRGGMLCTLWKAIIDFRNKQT

CYP2C9 = CYP2C9 (Homo sapiens, UniProt P11712); assay: Inhibition of CYP2C9 (unknown origin) at 10 uM relative to control; format: ADME
[5] = target: Receptor tyrosine-protein kinase erbB-4 (Homo sapiens, UniProt Q15303); assay: Inhibition of recombinant human N-terminal GST-tagged ERBB4 cytoplasmic domain (708 to 993 residues) expressed in baculovirus expression system
[6] = target: T2, Mitogen-activated protein kinase kinase kinase 5; assay: Inhibition of ASK1 (unknown origin) assessed as reduction in JNK phosphorylation by cell based assay
[7] = target: Macrophage-stimulating protein receptor (Homo sapiens, UniProt Q04912); assay: Inhibition of recombinant human GST-tagged RON cytoplasmic domain expressed in baculovirus expression system
Macrophage-stimulating protein receptor, sequence (Q04912 25-304 limits assumed): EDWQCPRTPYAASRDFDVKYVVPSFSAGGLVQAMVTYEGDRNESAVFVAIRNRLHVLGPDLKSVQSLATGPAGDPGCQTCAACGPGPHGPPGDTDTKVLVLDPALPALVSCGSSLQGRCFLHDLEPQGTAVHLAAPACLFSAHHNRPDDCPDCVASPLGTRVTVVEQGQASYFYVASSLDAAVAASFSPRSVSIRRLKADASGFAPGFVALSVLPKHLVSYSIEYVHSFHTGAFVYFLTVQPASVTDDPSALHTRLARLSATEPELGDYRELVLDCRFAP
Macrophage-stimulating protein receptor, sequence (Q04912 310-1400 limits assumed): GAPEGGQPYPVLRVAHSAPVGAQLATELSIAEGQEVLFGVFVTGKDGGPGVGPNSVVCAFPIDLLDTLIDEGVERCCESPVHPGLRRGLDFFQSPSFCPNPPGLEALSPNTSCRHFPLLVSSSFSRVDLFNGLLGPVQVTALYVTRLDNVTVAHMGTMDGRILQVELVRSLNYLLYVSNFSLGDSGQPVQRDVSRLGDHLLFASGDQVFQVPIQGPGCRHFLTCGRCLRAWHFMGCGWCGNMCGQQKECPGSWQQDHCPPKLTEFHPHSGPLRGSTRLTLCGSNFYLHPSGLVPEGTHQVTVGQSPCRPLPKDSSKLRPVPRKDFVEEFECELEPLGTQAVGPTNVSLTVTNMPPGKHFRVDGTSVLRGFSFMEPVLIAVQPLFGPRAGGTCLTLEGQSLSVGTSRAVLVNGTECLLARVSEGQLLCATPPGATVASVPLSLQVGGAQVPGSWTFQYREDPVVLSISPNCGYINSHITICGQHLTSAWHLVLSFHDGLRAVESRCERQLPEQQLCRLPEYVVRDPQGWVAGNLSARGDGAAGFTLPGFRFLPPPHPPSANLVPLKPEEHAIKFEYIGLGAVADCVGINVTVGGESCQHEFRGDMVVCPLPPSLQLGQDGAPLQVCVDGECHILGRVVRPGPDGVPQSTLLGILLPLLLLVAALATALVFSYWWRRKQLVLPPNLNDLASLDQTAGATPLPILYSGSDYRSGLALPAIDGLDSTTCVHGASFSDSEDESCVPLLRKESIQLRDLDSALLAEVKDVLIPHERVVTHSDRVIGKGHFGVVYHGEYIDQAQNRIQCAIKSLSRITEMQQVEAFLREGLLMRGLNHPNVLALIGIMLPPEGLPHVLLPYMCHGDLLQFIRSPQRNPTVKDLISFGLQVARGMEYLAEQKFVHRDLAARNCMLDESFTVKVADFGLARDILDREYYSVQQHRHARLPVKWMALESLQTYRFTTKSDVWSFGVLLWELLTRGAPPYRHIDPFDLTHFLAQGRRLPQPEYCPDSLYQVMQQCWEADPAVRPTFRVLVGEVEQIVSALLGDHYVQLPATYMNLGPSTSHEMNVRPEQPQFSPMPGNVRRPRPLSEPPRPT

CYP2C9, sequence (P11712 whole entry, the tested form may be a part): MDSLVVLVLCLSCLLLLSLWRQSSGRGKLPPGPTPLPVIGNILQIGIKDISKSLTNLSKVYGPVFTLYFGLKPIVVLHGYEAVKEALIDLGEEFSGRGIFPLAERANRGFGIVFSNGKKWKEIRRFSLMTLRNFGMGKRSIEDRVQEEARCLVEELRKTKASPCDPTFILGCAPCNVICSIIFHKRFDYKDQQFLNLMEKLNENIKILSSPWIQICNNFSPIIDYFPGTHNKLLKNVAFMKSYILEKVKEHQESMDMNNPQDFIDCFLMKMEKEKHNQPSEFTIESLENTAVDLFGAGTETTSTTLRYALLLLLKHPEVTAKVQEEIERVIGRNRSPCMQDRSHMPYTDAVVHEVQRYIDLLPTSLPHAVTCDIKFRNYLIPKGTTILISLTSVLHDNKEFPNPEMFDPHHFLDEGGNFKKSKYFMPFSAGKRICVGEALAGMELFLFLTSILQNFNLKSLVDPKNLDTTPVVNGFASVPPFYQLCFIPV
Receptor tyrosine-protein kinase erbB-4, sequence (Q15303 whole entry, the tested form may be a part): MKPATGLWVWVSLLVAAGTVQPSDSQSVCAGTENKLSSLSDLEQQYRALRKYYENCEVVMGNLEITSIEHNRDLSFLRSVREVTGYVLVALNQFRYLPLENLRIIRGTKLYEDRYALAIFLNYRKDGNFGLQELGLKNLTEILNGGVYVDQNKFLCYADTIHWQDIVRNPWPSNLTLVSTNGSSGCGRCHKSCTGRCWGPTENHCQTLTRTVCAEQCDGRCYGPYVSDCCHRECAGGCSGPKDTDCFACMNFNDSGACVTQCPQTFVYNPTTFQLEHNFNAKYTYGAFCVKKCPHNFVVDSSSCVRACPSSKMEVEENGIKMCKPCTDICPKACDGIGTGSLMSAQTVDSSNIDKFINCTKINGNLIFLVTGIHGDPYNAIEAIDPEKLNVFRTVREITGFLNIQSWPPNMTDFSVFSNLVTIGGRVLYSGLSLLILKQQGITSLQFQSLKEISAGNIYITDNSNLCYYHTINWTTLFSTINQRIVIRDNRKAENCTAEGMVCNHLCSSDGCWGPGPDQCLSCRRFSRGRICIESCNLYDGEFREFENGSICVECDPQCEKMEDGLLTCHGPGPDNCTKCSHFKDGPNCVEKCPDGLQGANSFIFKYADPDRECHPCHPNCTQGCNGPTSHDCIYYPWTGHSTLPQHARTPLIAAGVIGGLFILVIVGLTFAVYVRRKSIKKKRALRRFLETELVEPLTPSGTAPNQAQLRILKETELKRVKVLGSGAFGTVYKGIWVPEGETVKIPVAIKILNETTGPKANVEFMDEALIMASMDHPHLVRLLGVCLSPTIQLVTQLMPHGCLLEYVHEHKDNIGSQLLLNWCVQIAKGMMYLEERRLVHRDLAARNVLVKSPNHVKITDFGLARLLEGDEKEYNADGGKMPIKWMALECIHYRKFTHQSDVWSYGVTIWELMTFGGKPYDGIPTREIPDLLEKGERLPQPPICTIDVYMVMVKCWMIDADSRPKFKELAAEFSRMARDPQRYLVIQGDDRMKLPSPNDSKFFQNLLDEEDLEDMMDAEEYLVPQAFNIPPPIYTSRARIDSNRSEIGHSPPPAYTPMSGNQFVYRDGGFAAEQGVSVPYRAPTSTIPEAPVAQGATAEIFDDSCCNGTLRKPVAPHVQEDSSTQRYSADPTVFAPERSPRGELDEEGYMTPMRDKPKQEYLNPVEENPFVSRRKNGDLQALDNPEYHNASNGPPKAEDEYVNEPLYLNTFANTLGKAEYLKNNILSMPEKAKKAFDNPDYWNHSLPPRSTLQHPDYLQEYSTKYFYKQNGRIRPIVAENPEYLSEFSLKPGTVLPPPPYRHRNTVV
5'-AMP-activated protein kinase catalytic subunit alpha-1, sequence (Q13131 whole entry): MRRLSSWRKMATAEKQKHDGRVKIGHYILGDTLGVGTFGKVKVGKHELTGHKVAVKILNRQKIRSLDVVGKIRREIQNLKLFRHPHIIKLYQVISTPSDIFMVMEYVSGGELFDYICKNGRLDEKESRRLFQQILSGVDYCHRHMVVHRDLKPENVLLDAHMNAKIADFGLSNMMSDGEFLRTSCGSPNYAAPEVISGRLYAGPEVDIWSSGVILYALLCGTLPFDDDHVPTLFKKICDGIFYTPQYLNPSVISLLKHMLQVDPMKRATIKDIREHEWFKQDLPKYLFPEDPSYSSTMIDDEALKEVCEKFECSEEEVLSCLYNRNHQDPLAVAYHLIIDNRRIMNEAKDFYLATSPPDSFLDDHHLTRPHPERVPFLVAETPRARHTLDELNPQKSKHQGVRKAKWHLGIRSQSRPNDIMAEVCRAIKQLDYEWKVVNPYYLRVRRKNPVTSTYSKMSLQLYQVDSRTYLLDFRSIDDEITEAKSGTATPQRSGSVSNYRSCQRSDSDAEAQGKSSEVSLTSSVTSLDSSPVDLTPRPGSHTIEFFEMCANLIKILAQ

IC50 [1]: 794 nM
IC50 [2]: > 20000 nM
IC50 [3]: 1000 nM
IC50 [4]: 60 nM
inhibition at 10 µM (CYP2C9): 36%
IC50 [5]: > 20000 nM
EC50 [6]: 60 nM
IC50 [7]: > 20000 nM
Structure (SMILES): COCCn1cc(NC(=O)c2csc(-c3nncn3C(C)C)n2)cn1
